Measurements as given in EP2562253B1 (priority 2010, dated 2011).
Where two headings read alike, the source gives them in different places.

Columns and labels:
wild-type enzyme RBS [1] = type: biochemical, Burkholderia sp. YT strain
wild-type enzyme RBS [2] = experiment: Reaction inhibition of wild-type enzyme RBS by various compounds; type: biochemical, Burkholderia sp. YT strain; details: 3-quinuclidinone 5 mM, NADPH 0.25 mM, pH 6.5, 30°C
Description: A cell-free extract of the wild-type enzyme was obtained as in Reference Example 4. The 3-quinuclidinone reduction activity of this cell-free extract was measured, and given as activity without inhibitor. The cell-free extract was added to 100 mM phosphate buffer (pH 6.5) containing the compounds shown in Table 2, 3-quinuclidinone (5 mM) and the coenzyme NADPH (0.25 mM), and reacted for 1 minute at 30°C, and reduction activity of 3-quinuclidinone was calculated from the rate of decrease in absorbancy at 340 nm.
Relative activity was calculated by the following formula, and used as an indicator of reaction inhibition by the various compounds. Relative activity (%) = [enzyme activity in presence of compound]/[enzyme activity without inhibitor] × 100 [formula]

Row | Compound | Remaining activity (%) (wild-type enzyme RBS [1]; pH 6.5) | Remaining activity (%) (wild-type enzyme RBS [1]; pH 6.5, 310000 µM) | Remaining activity (%) (wild-type enzyme RBS [1]; pH 6.5, 620000 µM) | Relative activity (%) (wild-type enzyme RBS [2]; additive 0.31 M, 310000 µM) | Relative activity (%) (wild-type enzyme RBS [2]; additive 0.62 M, 620000 µM)
1 | OC(CCCl)c1cccs1 (stereo not drawn) [3-Chloro-1-(2-thienyl)propan-1-ol] | 0% | – | – | – | –
2 | O=C(CCCl)c1cccs1 [3-Chloro-1-(2-thienyl)propan-1-one] | 0% | – | – | – | –
3 | Cl.O=C1CN2CCC1CC2 [3-Quinuclidinone hydrochloride] | – | 73% | 44% | – | –
4 | CC(C)=O [Acetone] | 80% | – | – | – | –
5 | CC(=O)c1ccccc1 [Acetophenone] | 81% | – | – | – | –
6 | CC(=O)c1cccs1 [Acetylthiophene] | 72% | – | – | – | –
7 | O=C(CCl)c1ccccc1 [Phenacyl chloride] | 0% | – | – | – | –
8 | O=C(CCl)c1cccc(Cl)c1 [m-chlorophenacyl chloride] | 0% | – | – | – | –
9 | Potassium chloride | – | 46% | 26% | 14% | 5%
10 | Sodium chloride | – | 46% | 24% | 15% | 3%
11 | Sodium sulfate | – | 76% | 79% | 31% | 17%
